The source of these data is US5763435A, “Sulfate conjugates of ursodeoxycholic acid, and their beneficial use in inflammatory disorders” (priority 1995, dated 1998).

A short description of series [1]: Hepatic biotransformation of infused bile acid (negative ion FAB-MS, conjugate separation). It is filed as in vivo, Sprague-Dawley rats. Particulars: i.v. infusion. The procedure: Adult male Sprague-Dawley rats (body weight 200-230 g) were anesthetized by an intraperitoneal injection of pentobarbital (Nembutal, 7.5 mg/100 g body weight), and maintained under sedation by additional doses. The right jugular vein and the common bile duct were cannulated using PE-50 polyethylene tubing (Clay-Adams, Parsippany, N.J.). Body temperature was maintained throughout the experiment at 37° C. using a rectal probe and a thermostatically controlled heating pad (Harvard Apparatus Co., Inc., Millis, Mass.). Saline was infused at a rate of 1.0 ml/h using a Harvard pump (Harvard Apparatus Co., Inc.) into the jugular vein for a control period of 2h. After collecting two 10 minute bile samples for base-line analysis, the bile acids were individually infused intravenously (i.v.) for 30 minutes in stepwise increasing doses (0.5, 1.0, and 2.0 μmol/min/100 g body weight). Bile acid solutions were prepared in 3% human albumin in 0.45% saline. Six animals were used for each experiment and bile was collected every 10 minutes into preweighed tubes. At the end of the experiment, blood was obtained by cardiac puncture, and urine was obtained by aspiration of the bladder. All biological specimens were stored at -20° C. This animal study protocol (#1 B 10044) was approved by the Bioethics committee of the Children's Hospital Medical Center (Cincinnati, Ohio).
Negative ion fast atom bombardment-mass spectrometry (FAB-MS) spectra of bile samples, urine and synthetic compounds were obtained after placing the equivalent of approximately 1 μl of the original bile extract, 10 μl-50 μl of the urine extract and jig quantities of synthetic bile acids dissolved in methanol onto a small drop of a glycerol matrix spotted on a copper target of the FAB probe. This probe was introduced directly into the ion source of the mass spectrometer and a beam of fast atoms of either xenon generated with a saddle field atom gun (ion Tech, Teddington, Middlesex, UK) operated at 8 kV and 20 μA, or cesium generated from cesium iodine (35 kV), was fired at the target containing the sample. Negative ion spectra were obtained over the mass range of 50-1000 Da/e.
For the determination of hepatic biotransformation of the infused bile acid, bile collections from the six animal were pooled and biliary bile acids were determined by GC-MS after extraction, solvolysis, hydrolysis, and derivatization. Quantification of bile acids was achieved using GC, by comparing the peak height response of the individual bile acid with the peak height response obtained from the internal standard, nordeoxycholic acid added to the initial sample of bile. Identification of a bile acid was made on the basis of the retention index relative to a homologous series of n-alkanes, referred to as the methylene unit value (MU) and the fragmentation pattern of the mass spectrum was compared with authentic standards. A list of over 100 mass spectra of authentic bile acid standards and retention indices was recently compiled as a reference source (Lawson, A. M., et al, Mass spectrometry of bile acids, The Bile Acids, Vol. 4, Methods and Applications, pp. 167-267 (1988)).
In the case of the animals infused with UDCA-3S, bile was collected during the final period of bile acid infusion ([…]). Bile acids were solvolyzed and separated into groups based on their mode of conjugation using the lipophilic anion exchange gel, diethylaminohydroxypropyl Sephadex LH-20; Packard Instruments, Groningen, The Netherlands). Bile acid composition was determined in each fraction by GC-MS after hydrolysis and preparation of the Me-TMS ethers.

A further series relates to serum liver enzymes. Particulars: oral administration; cited from earlier work.
Series [2] is described as follows: Plasma UDCA concentration after oral administration. It is filed as in vivo, Sprague-Dawley rats. Particulars: read-out: Unconjugated plasma UDCA concentration. The procedure:
Male Sprague-Dawley rats (Harlan Sprague-Dawley, Inc., Indianapolis, Ind.), weighing 210-290 g, were maintained on a 12-hour light-dark cycle and fed standard laboratory chow ad libitum for 3 days. The animals were then transferred to metabolic cages in which they were housed individually and fed the same diet. UDCA, UDCA 3-sulfate, UDCA 7-sulfate, and UDCA 3,7-disulfate were administered by gavage at a dose of 250 mg/day for 4 consecutive days. Each group comprised 3-6 rats. Body weights of the animals were measured each day. On day 5, the animals were killed by exsanguination under ether anesthesia. Plasma was collected and frozen at -20° C. […]
In each group, urine from all animals was pooled on the individual days of collection. […] After the addition of nordeoxycholic acid (1 μg), bile acids were quantitatively extracted from portions of urine (3 mL) and plasma (1 mL) using Bond-Elut C18 cartridges. […]
GC-MS analysis was performed using a Finnigan 4635 mass spectrometer (Finnigan Inc., San Jose, Calif.) that housed an identical gas chromatography column operated under the same conditions. Electron ionization (70 eV) mass spectra were recorded over the mass range of 50-800 daltons by repetitive scanning of the eluting components. […]
Data are expressed as mean±SEM or as mean values of all animals when extracts were pooled before analysis. […]

Series [3] deals with chemically induced colon cancer. Particulars: in vivo; cited from earlier work.

SMILES strings stand for the structures. Entries after “also recorded” stand apart in the source; their conditions may differ.

Take `C[C@H](CCC(=O)O)[C@H]1CC[C@H]2[C@@H]3[C@@H](OS(=O)(=O)O)C[C@@H]4C[C@H](OS(=O)(=O)O)CC[C@]4(C)[C@H]3CC[C@]12C` [UDCA-DS, ursodeoxycholic acid 3,7-disulfate]: the “Hepatic biotransformation / form secreted in bile (in words)” value in series [1] is given as “No other ions were present to suggest further metabolic transformation; also recorded: not amidated with taurine or glycine”; in series [1] (listed as UDCA-disulfate), “secreted into bile unchanged”.
With `C[C@H](CCC(=O)O)[C@H]1CC[C@H]2[C@@H]3[C@@H](O)C[C@@H]4C[C@H](O)CC[C@]4(C)[C@H]3CC[C@]12C` [UDCA, 3 alpha, 7 beta-dihydroxy-5 beta-cholan-24oic acid, reference compound], in the series on serum liver enzymes, the “Serum liver enzymes (in words)” value is listed as “significant improvement in serum liver enzymes”. The concentration in series [2] was 4.8 ± 2.2 µM. In series [1], the “Hepatic biotransformation / form secreted in bile (in words)” value is “almost exclusively conjugated with taurine and glycine; also recorded: mainly conjugated with taurine, and to a lesser extent was converted to glycine, sulfate and flucuronide conjugates”. Also, the “Effect in colon cancer models (in words)” value in series [3] is reported as “beneficial effects”.
With `C[C@H](CCC(=O)O)[C@H]1CC[C@H]2[C@@H]3[C@@H](OS(=O)(=O)O)C[C@@H]4C[C@H](O)CC[C@]4(C)[C@H]3CC[C@]12C` [UDCA-7S, ursodeoxycholic acid 7-sulfate], the “Hepatic biotransformation / form secreted in bile (in words)” value in series [1] is on record as “No other significant ions were present to indicate further metabolic transformation; also recorded: not amidated with taurine or glycine”; in series [1] (listed as UDCA-7-sulfate) it was “secreted into bile unchanged”.
For the compound `C[C@H](CCC(=O)O)[C@H]1CC[C@H]2[C@@H]3[C@@H](O)C[C@@H]4C[C@H](OS(=O)(=O)O)CC[C@]4(C)[C@H]3CC[C@]12C` [UDCA-3S, ursodeoxycholic acid 3-sulfate], in series [1] (listed as C-3 sulfate of UDCA), the “Hepatic biotransformation / form secreted in bile (in words)” value was “secreted into bile to a limited extent unchanged, but also underwent appreciable amidation with taurine and glycine and further hydroxylation”.
